Literature values as cited in publication PMC5664587 (Fluids and Barriers of the CNS, 2017).

Conditions: brain homogenate

fu,brain, previously reported: 0.029
SMILES: CC(C)NCC(O)COc1cccc2ccccc12 (stereo not shown) [propranolol]
